Experimental data: patent US20230233569A1 (Revolution Medicines, Inc., priority 2020, published 2023)
Where “and” joins values, the source holds several entries; their conditions need not be identical. Equal entries are not always repeated. Where two headings read alike, the source gives them in different places.

Legend:
KRAS G12C = KRAS G12C (Homo sapiens, UniProt P01116+P62937, G12C); experiment: Disruption of BRAF RBD interaction with Ras (FRET / MOA assay, with Cyclophilin A); format: biochemical
Outline: (§1)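 IC50 values reflect loss of K-Ras binding to BRAF RBD, read as a lowered TR-FRET ratio compared with DMSO, driven by compound-mediated K-Ras:Cyclophilin A complex formation. Compound top dose 30 μM final, 3-fold steps, 3 h incubation at 25 °C before a 1.5 h antibody step.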

KRAS G12D = KRAS G12D (Homo sapiens, UniProt P01116+P62937, G12D); experiment: as above; format: biochemical
Outline: as §1

KRAS G12S = KRAS G12S (Homo sapiens, UniProt P01116+P62937, G12S); experiment: as above; format: biochemical
Outline: as §1

KRAS G12V = KRAS G12V (Homo sapiens, UniProt P01116+P62937, G12V); experiment: as above; format: biochemical
Outline: as §1

KRAS G13C = KRAS G13C (Homo sapiens, UniProt P01116+P62937, G13C); experiment: as above; format: biochemical
Outline: as §1

KRAS G13D = KRAS G13D (Homo sapiens, UniProt P01116+P62937, G13D); experiment: as above; format: biochemical
Outline: as §1

KRAS WT = KRAS WT (Homo sapiens, UniProt P01116+P62937); experiment: as above; format: biochemical
Outline: as §1

NRAS G12C = NRAS G12C (Homo sapiens, UniProt P01111+P62937, G12C); experiment: as above; format: biochemical
KRAS Q61H = KRAS Q61H (Homo sapiens, UniProt P01116+P62937, Q61H); experiment: as above; format: biochemical; details: KRAS Q61H; read-out: KRAS Q61H FRET data IC50
Outline: (§2)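 IC50 reflects compound-driven Ras:Cyclophilin A ternary complex displacing BRAF RBD, read as lowered TR-FRET ratio relative to DMSO after Eu anti-His (10 nM) and APC anti-GST (50 nM) detection for 1.5 h. Prior incubation 3 h, 25° C, with 12.5 nM GMPPNP-loaded Ras, 50 nM BRAF RBD, 25 μM Cyclophilin A; top compound 30 μM.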

NRAS Q61K = NRAS Q61K (Homo sapiens, UniProt P01111+P62937, Q61K); experiment: as above; format: biochemical; details: NRAS Q61K; read-out: NRAS Q61K FRET data IC50
Outline: as §2

NRAS Q61R = NRAS Q61R (Homo sapiens, UniProt P01111+P62937, Q61R); experiment: as above; format: biochemical; details: NRAS Q61R; read-out: NRAS Q61R FRET data IC50
Outline: as §2

NRAS WT = NRAS WT (Homo sapiens, UniProt P01111+P62937); experiment: as above; format: biochemical; details: NRAS WT; read-out: NRAS WT FRET data IC50
Outline: as §2

NCI-H358 (K-Ras G12C) = experiment: CellTiter-Glo cell viability assay, 5-day treatment; format: cell-based; details: Homo sapiens, NCI-H358, 120 h, 5-day treatment; read-out: H358 Cell Viability assay data (K-Ras G12C, IC50)
Outline: (§3)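 Viability is read as luminescence on day 5 after direct compound addition to plated cells, following about 30 minutes' room-temperature equilibration. Each signal is scaled to mean DMSO as 100%.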

Capan-1 (K-Ras G12V) = experiment: as above; format: cell-based; details: Homo sapiens, CAPAN-1, 120 h, 5-day treatment; read-out: Capan-1 Cell Viability assay data (K-Ras G12V, IC50)
Outline: as §3

[1] = read-out: KRAS G12C FRET data, IC50
[2] = read-out: KRAS G12D FRET data, IC50
[3] = read-out: KRAS G12S FRET data, IC50
[4] = KRAS G12V, read-out: KRAS G12V FRET data IC50
[5] = read-out: KRAS G13C FRET data, IC50
[6] = KRAS G13D, read-out: KRAS G13D FRET data IC50
[7] = KRAS WT, read-out: KRAS WT FRET data IC50
[8] = NRAS G12C, read-out: NRAS G12C FRET data IC50
[9] = KRAS G12V FRET data IC50, KRAS G12V
[10] = KRAS G13D FRET data IC50, KRAS G13D
[11] = KRAS WT FRET data IC50, KRAS WT
[12] = NRAS G12C FRET data IC50, NRAS G12C

Chain of KRAS G13D (P01116 1-169 isoform P01116-2 G13D limits assumed): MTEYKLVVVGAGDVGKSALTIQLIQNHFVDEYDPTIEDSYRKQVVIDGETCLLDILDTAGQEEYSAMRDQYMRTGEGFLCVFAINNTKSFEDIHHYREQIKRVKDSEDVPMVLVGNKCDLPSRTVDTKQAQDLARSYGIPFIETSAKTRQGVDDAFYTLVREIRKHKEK
Chain of KRAS G13D (P62937 whole entry): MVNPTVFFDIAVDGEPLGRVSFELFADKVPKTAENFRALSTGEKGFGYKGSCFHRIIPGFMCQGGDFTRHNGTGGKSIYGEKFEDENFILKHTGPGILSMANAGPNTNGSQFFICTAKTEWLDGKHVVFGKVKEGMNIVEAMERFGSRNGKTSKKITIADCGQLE
Chain of KRAS G12D (P01116 1-169 isoform P01116-2 G12D limits assumed): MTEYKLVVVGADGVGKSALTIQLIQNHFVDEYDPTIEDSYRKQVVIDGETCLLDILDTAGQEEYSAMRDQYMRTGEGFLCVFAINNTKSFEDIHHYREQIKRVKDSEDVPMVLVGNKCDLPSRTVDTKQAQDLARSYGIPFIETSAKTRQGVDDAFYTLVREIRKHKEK
Chain of KRAS G12D (P62937 whole entry): as the sequence (P62937 whole entry) above
Chain of NRAS Q61K (P01111 whole entry Q61K): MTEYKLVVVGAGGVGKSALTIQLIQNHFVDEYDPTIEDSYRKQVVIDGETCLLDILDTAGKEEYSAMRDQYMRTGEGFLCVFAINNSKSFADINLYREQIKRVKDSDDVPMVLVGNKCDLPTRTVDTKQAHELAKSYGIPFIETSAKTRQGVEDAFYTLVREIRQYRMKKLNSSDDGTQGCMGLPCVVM
Chain of NRAS Q61K (P62937 whole entry): as the sequence (P62937 whole entry) above
Chain of KRAS G12V (P01116 1-169 isoform P01116-2 G12V limits assumed): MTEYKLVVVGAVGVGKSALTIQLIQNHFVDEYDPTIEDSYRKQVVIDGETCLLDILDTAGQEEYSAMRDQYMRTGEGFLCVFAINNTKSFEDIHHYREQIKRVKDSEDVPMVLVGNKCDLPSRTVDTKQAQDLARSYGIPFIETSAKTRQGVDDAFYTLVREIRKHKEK
Chain of KRAS G12V (P62937 whole entry): as the sequence (P62937 whole entry) above
Chain of KRAS Q61H (P01116 1-169 isoform P01116-2 Q61H limits assumed): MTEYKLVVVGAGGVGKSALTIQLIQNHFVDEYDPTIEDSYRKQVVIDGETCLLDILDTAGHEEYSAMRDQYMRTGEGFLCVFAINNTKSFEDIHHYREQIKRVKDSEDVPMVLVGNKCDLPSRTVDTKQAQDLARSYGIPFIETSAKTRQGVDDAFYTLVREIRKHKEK
Chain of KRAS Q61H (P62937 whole entry): as the sequence (P62937 whole entry) above
Chain of KRAS G12C (P01116 1-169 isoform P01116-2 G12C): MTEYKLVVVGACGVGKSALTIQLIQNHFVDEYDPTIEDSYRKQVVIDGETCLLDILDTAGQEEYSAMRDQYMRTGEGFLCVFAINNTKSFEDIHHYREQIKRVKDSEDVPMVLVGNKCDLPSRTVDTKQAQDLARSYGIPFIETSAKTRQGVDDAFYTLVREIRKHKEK
Chain of KRAS G12C (P62937 whole entry): as the sequence (P62937 whole entry) above
Chain of KRAS WT (P01116 1-169 isoform P01116-2 limits assumed): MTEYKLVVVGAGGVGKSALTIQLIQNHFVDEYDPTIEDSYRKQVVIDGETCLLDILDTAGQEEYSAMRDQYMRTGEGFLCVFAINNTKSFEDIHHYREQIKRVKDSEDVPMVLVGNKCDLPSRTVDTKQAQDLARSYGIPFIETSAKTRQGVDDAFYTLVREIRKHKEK
Chain of KRAS WT (P62937 whole entry): as the sequence (P62937 whole entry) above
Chain of NRAS G12C (P01111 whole entry G12C): as the sequence (P01111 whole entry Q61K) above, with G12C, K61Q counted along it
Chain of NRAS G12C (P62937 whole entry): as the sequence (P62937 whole entry) above
Chain of NRAS WT (P01111 whole entry): as the sequence (P01111 whole entry Q61K) above, with K61Q counted along it
Chain of NRAS WT (P62937 whole entry): as the sequence (P62937 whole entry) above
Chain of NRAS Q61R (P01111 whole entry Q61R): as the sequence (P01111 whole entry Q61K) above, with K61R counted along it
Chain of NRAS Q61R (P62937 whole entry): as the sequence (P62937 whole entry) above
Chain of KRAS G13C (P01116 1-169 isoform P01116-2 G13C): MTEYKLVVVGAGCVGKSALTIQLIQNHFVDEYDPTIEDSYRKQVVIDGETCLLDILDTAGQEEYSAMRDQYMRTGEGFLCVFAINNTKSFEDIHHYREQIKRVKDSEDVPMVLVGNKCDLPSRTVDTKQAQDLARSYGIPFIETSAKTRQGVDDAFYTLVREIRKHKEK
Chain of KRAS G13C (P62937 whole entry): as the sequence (P62937 whole entry) above
Chain of KRAS G12S (P01116 1-169 isoform P01116-2 G12S limits assumed): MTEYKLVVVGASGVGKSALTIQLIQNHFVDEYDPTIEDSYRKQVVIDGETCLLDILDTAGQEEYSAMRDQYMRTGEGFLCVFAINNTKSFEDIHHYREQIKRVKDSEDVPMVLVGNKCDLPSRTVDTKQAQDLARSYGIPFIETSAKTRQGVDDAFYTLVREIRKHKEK
Chain of KRAS G12S (P62937 whole entry): as the sequence (P62937 whole entry) above

Structure (SMILES) | IC50 (KRAS G12C; [1]) | IC50 (KRAS G12D; [2]) | IC50 (KRAS G12S; [3]) | IC50 (KRAS G12V; [4]) [nM] | IC50 (KRAS G13C; [5]) | IC50 (KRAS G13D; [6]) | IC50 (KRAS WT; [7]) [nM] | IC50 (NRAS G12C; [8]) [nM] | IC50 (KRAS Q61H) [nM] | IC50 (NRAS Q61K) [nM] | IC50 (NRAS Q61R) [nM] | IC50 (NRAS WT) [nM] | IC50 (NCI-H358 (K-Ras G12C)) [nM] | also measured
CCn1c(-c2cc(N3CCN(C)CC3)cnc2[C@H](C)OC)c2c3cc(ccc31)-c1csc(n1)C[C@H](NC(C)=O)C(=O)N1CCC[C@H](N1)C(=O)OCC(C)(C)C2 (atropisomer, axis not shown) [Example A340] | > 10000 nM | > 10000 nM | > 10000 nM | > 10000 | > 10000 nM | > 10000 nM | > 10000 | > 10000 | > 10000 | > 10000 | > 10000 | > 10000 | – | –
CCn1c(-c2cccnc2[C@H](C)OC)c2c3cc(ccc31)-c1csc(n1)C[C@H](NC(=O)[C@H](C(C)C)N(C)C(=O)N1CC(OC)C1)C(=O)N1CCC[C@H](N1)C(=O)OCC(C)(C)C2 (racemic) [Example A205] | – | – | – | – | – | – | – | – | 10 to 100 | 10 to 100 | 100 to 1000 | 100 to 1000 | < 10 | –
CCn1c(-c2cccnc2[C@H](C)OC)c2c3cc(ccc31)-c1csc(n1)C[C@H](NC(=O)[C@H](C(C)C)N1CCC3(CCN(S(C)(=O)=O)C3)C1=O)C(=O)N1CCC[C@H](N1)C(=O)OCC(C)(C)C2 (mixture of isomers) [Example A220] | – | – | – | – | – | – | – | – | 1000 to 10000 | 1000 to 10000 | 1000 to 10000 | 1000 to 10000 | – | IC50 (Capan-1 (K-Ras G12V)): 1000 to 10000 nM
CCn1c(-c2cnccc2COC)c2c3cc(ccc31)-c1cc(O)cc(c1)C[C@H](NC(=O)[C@H](C(C)C)N(C)C(=O)[C@H]1CCN(S(=O)(=O)N3CC(O)C3)C1)C(=O)N1CCC[C@H](N1)C(=O)OCC(C)(C)C2 [Example A37, (2S)—N-[(8S,14S)-22-ethyl-4-hydroxy-21-[4-(methoxymethyl)pyridin-3-yl]-18,18-dimethyl-9,15-dioxo-16-oxa-10,22,28-triazapentacyclo[18.5.2.1^2,6.1^10,14.0^23,27]nonacosa-1(26),2,4,6(29),20,23(27),24-heptaen-8-yl]-2-{1-[(3S)-1-[(3-hydroxyazetidin-1-yl)sulfonyl]pyrrolidin-3-yl]-N-methylformamido}-3-methylbutanamide] | – | – | – | – | – | – | – | – | 10 to 100 | 1000 to 10000 | 1000 to 10000 | 100 to 1000 | 1000 to 10000 | IC50 (KRAS G12C; KRAS G12C FRET data, IC50): 100 to 1000 nM; IC50 (KRAS G12D; KRAS G12D FRET data, IC50): > 10000 nM; IC50 (KRAS G12S; KRAS G12S FRET data, IC50): 100 to 1000 nM; IC50 (KRAS G12V; [9]): 100 to 1000 nM; IC50 (KRAS G13C; KRAS G13C FRET data, IC50): 100 to 1000 nM; IC50 (KRAS G13D; [10]): 1000 to 10000 nM; IC50 (KRAS WT; [11]): 100 to 1000 nM; IC50 (NRAS G12C; [12]): 100 to 1000 nM
CCn1c(-c2cnccc2COC)c2c3cc(ccc31)-c1cc(O)cc(c1)C[C@H](NC(=O)[C@H](C(C)C)N(C)C(=O)c1ncco1)C(=O)N1CCC[C@H](N1)C(=O)OCC(C)(C)C2 [Example A38] | 100 to 1000 nM | 1000 to 10000 nM | 100 to 1000 nM | 100 to 1000 | 1000 to 10000 nM | 100 to 1000 nM | 100 to 1000 | 100 to 1000 | 10 to 100 | 100 to 1000 | 100 to 1000 | 100 to 1000 | 1000 to 10000 | –
CCn1c(-c2cnccc2COC)c2c3cc(ccc31)-c1cc(O)cc(c1)C[C@H](NC(=O)[C@H](C(C)C)N(C)S(C)(=O)=O)C(=O)N1CCC[C@H](N1)C(=O)OCC(C)(C)C2 [Example A57, (2S)—N-[(8S,14S)-22-ethyl-4-hydroxy-21-[4-(methoxymethyl)pyridin-3-yl]-18,18-dimethyl-9,15-dioxo-16-oxa-10,22,28-triazapentacyclo[18.5.2.1^2,6.1^10,14.0^23,27]nonacosa-1(26),2,4,6(29),20,23(27),24-heptaen-8-yl]-3-methyl-2-(N-methylmethanesulfonamido)butanamide] | – | – | – | – | – | – | – | – | 100 to 1000 | 1000 to 10000 | 1000 to 10000 | 1000 to 10000 | 1000 to 10000 | IC50 (KRAS G12C; KRAS G12C FRET data, IC50): 1000 to 10000 nM; IC50 (KRAS G12D; KRAS G12D FRET data, IC50): > 10000 nM; IC50 (KRAS G12S; KRAS G12S FRET data, IC50): 1000 to 10000 nM; IC50 (KRAS G12V; [9]): 1000 to 10000 nM; IC50 (KRAS G13C; KRAS G13C FRET data, IC50): 1000 to 10000 nM; IC50 (KRAS G13D; [10]): 1000 to 10000 nM; IC50 (KRAS WT; [11]): 1000 to 10000 nM; IC50 (NRAS G12C; [12]): 1000 to 10000 nM
CCn1c(-c2cccnc2[C@H](C)OC)c2c3cc(ccc31)-c1cc(O)cc(c1)C[C@H](NC(=O)C1[C@H]3COC[C@@H]13)C(=O)N1CCC[C@H](N1)C(=O)OCC(C)(C)C2 (some centres unmarked) [Example A253] | 100 to 1000 nM and 1000 to 10000 nM | 1000 to 10000 nM and > 10000 nM | 1000 to 10000 nM and > 10000 nM | 1000 to 10000 | 100 to 1000 nM and 1000 to 10000 nM | 1000 to 10000 nM and > 10000 nM | 1000 to 10000 | 1000 to 10000 | 100 to 1000 | 1000 to 10000 | 1000 to 10000 | 100 to 1000 | – | –
CCn1c(-c2cc(N3CCN(C)CC3)cnc2[C@H](C)OC)c2c3cc(ccc31)-c1csc(n1)C[C@H](NC(C)=O)C(=O)N1CCC[C@H](N1)C(=O)OCC(C)(C)C2 [Example A321] | 10 to 100 nM | 100 to 1000 nM | 100 to 1000 nM | 100 to 1000 | 100 to 1000 nM | 100 to 1000 nM | 100 to 1000 | 10 to 100 | 100 to 1000 | 100 to 1000 | 100 to 1000 | 100 to 1000 | 100 to 1000 | –
CCn1c(-c2cccnc2[C@H](C)OC)c2c3cc(ccc31)-c1cc(O)cc(c1)C[C@H](NC(=O)[C@H](C1CCCC1)N(C)C(=O)N1CCS(=O)(=NC)CC1)C(=O)N1CCC[C@H](N1)C(=O)OCC(C)(C)C2 [Example A426] | 10 to 100 nM | 100 to 1000 nM | 100 to 1000 nM | 100 to 1000 | 10 to 100 nM | 10 to 100 nM | 10 to 100 | 10 to 100 | 10 to 100 | 100 to 1000 | 100 to 1000 | 10 to 100 | – | –
